The source of these data is patent US20210070748A1, “INHIBITORS OF BRUTONS TYROSINE KINASE” (Pharmacyclics LLC, priority 2015, published 2021).

The structures appear in SMILES notation. A value given as a limit tells only on which side of the number the result lay.

Common to all, as to type: biochemical
In one test the target is T1, JAK3 (Homo sapiens, UniProt P52333).
T1 sequence (P52333 1-1124): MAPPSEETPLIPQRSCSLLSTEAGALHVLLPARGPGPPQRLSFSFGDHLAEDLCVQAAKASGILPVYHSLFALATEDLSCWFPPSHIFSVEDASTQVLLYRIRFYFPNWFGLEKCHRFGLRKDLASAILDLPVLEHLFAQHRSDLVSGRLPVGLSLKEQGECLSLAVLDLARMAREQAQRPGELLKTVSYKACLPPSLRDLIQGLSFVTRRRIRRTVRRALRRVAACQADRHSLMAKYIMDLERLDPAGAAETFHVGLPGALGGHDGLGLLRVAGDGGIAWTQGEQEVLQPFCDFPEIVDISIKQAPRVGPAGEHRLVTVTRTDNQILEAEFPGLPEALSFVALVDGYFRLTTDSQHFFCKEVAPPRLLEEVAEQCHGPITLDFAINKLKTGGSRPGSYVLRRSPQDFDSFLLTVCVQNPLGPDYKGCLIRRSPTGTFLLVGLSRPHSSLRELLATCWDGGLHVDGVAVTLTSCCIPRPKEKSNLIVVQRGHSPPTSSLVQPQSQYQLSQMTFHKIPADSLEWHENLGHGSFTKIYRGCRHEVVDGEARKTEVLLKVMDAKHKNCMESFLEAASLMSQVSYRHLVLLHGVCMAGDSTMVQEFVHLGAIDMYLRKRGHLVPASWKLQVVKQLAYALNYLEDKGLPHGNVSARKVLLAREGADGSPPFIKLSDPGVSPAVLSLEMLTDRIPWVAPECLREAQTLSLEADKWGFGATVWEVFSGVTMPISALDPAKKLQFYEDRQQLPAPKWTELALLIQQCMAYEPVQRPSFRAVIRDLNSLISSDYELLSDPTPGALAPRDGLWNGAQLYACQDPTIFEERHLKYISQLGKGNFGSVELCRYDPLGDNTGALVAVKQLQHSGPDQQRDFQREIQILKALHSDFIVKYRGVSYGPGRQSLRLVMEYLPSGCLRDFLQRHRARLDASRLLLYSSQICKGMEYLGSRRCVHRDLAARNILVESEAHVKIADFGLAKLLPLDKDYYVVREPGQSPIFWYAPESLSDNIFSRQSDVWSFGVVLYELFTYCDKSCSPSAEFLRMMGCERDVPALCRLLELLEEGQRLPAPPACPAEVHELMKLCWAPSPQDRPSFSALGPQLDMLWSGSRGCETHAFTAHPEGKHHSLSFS
Put plainly: Inhibition of a panel of kinases, in vitro HotSpot kinase assay: JAK3. The following applies: D-compounds panel data; 1 μM ATP; read-out: IC50 JAK3.

The target of the next test is LCK (Homo sapiens, UniProt P06239). Nature of the test: Inhibition of a panel of kinases, in vitro HotSpot kinase assay: LCK. The following applies: D-compounds panel data; 1 μM ATP; read-out: IC50 LCK.
A further test concerns the target T2, ITK (Homo sapiens, UniProt Q08881).
T2 sequence (Q08881 1-620): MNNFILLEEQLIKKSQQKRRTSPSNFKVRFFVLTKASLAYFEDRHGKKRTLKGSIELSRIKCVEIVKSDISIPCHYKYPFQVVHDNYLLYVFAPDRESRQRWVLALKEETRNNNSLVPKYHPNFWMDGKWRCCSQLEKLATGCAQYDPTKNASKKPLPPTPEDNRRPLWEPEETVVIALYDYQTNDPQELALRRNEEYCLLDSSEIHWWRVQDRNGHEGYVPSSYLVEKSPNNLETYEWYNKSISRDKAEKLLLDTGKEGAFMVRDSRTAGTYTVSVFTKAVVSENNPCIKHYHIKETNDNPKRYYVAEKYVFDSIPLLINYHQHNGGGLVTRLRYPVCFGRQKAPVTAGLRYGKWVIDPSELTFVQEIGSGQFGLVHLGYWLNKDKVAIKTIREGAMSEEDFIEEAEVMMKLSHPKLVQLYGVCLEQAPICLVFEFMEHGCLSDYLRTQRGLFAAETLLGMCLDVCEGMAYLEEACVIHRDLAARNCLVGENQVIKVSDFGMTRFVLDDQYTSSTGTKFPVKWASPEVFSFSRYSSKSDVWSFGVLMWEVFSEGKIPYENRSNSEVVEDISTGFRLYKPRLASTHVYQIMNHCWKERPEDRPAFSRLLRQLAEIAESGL
Nature of the test: Inhibition of a panel of kinases, in vitro HotSpot kinase assay: ITK. Particulars: D-compounds panel data; 1 μM ATP. On the procedure:
(§1) The degree of inhibition of a panel of kinases is determined using the in vitro HotSpot kinase assay (purified enzymes, ^33P-ATP, an appropriate substrate and 1 μM ATP).

Another test deals with EGFR (Homo sapiens, UniProt P00533). Nature of the test: Inhibition of a panel of kinases, in vitro HotSpot kinase assay: EGFR. The following applies: D-compounds panel data; 1 μM ATP. As for the experimental part:
as §1

The target of the next test is SRC (Homo sapiens, UniProt P12931). Put plainly: Inhibition of a panel of kinases, in vitro HotSpot kinase assay: SRC. Particulars: D-compounds panel data; 1 μM ATP. On the procedure: as §1
For the next test, the target named is T3, TEC (Homo sapiens, UniProt P42680).
T3 sequence (P42680 1-631): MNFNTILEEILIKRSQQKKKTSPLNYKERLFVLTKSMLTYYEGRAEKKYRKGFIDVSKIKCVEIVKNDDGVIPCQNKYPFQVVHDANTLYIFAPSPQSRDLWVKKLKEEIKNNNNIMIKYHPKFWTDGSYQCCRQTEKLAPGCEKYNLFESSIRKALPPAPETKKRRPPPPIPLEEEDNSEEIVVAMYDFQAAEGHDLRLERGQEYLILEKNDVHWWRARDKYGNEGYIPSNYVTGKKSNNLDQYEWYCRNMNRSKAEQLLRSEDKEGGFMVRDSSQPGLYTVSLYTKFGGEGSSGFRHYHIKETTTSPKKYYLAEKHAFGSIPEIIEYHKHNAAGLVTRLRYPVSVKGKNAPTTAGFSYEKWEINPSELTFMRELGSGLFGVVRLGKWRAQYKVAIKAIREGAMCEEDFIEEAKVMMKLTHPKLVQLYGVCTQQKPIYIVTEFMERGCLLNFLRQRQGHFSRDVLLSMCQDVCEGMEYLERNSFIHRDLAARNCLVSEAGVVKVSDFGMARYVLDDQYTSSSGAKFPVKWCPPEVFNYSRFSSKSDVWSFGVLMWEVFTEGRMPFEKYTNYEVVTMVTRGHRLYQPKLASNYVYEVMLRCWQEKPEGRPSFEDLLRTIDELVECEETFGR
Put plainly: Inhibition of a panel of kinases, in vitro HotSpot kinase assay: TEC. Particulars: D-compounds panel data; 1 μM ATP. On the procedure:
as §1

Chain of LCK (P06239 whole entry): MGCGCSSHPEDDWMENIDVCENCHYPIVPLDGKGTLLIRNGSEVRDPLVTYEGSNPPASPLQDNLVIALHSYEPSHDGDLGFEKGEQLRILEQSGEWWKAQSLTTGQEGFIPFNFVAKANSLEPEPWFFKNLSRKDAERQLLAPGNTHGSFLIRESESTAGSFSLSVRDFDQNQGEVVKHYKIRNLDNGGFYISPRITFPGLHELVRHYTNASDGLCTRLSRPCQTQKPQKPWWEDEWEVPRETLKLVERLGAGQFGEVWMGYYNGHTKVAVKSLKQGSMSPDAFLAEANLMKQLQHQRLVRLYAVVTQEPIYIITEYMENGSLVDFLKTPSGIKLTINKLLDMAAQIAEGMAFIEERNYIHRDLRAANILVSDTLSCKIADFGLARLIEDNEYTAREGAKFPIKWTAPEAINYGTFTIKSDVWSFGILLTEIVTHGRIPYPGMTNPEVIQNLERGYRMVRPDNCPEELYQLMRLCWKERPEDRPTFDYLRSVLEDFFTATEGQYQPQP
Chain of SRC (P12931 whole entry): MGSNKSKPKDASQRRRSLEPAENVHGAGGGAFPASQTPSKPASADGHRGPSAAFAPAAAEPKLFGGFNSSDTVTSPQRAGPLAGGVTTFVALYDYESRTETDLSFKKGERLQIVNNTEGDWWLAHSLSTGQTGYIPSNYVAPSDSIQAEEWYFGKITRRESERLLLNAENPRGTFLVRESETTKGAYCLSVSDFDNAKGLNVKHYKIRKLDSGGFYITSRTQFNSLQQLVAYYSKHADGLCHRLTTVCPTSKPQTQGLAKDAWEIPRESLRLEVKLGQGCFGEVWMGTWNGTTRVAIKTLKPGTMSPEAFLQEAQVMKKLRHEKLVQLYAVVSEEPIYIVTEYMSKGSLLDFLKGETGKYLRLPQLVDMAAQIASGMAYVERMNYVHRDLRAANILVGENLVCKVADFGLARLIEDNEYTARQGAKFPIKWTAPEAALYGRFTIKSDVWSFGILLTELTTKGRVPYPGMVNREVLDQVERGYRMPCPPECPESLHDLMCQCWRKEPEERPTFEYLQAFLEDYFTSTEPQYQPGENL
Chain of EGFR (P00533 25-1210): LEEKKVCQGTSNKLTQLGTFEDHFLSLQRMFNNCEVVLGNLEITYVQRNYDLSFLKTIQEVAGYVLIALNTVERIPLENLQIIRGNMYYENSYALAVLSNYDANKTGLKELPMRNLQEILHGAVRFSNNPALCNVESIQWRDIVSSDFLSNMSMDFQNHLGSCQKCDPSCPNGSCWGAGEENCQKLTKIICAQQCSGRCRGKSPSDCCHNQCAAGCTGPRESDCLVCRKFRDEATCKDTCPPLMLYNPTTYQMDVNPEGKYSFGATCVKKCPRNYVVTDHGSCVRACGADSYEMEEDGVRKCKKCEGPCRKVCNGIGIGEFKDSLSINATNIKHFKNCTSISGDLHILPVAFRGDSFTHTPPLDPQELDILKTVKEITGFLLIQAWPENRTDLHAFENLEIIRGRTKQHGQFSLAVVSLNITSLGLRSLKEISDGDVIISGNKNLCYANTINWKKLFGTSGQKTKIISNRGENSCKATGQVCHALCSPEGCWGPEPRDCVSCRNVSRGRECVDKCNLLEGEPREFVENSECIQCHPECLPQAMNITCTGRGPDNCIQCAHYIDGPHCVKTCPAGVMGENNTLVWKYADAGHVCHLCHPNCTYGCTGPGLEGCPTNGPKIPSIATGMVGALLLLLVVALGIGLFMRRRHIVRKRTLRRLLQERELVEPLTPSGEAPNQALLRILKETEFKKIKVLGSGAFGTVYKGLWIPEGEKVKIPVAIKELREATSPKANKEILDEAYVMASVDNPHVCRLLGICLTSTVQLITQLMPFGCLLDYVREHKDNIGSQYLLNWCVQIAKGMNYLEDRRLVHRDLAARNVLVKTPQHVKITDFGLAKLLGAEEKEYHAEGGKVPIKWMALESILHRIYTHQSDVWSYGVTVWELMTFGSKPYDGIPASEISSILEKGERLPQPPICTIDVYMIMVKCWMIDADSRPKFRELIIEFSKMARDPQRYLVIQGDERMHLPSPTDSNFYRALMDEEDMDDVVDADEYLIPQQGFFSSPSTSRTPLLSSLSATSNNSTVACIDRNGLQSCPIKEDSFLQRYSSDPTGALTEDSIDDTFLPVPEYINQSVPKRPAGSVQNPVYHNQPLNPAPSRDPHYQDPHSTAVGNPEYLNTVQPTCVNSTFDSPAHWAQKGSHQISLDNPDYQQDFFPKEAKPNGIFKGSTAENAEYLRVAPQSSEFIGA

Take `C/C=C/c1ccc(C(=O)N[C@@H]2CCCN(c3cnc(C(N)=O)c(Nc4cc(C)ns4)c3)[C@@H]2C)c(F)c1` [Example D-170, 5-[(2R,3R)-3-{2-fluoro-4-[(1E)-prop-1-en-1-yl]benzamido}-2-methylpiperidin-1-yl]-3-[(3-methyl-1,2-thiazol-5-yl)amino]pyridine-2-carboxamide]: the IC50 on JAK3 was 1000 to 10000 nM; at LCK it was 10 to 100 nM; against ITK it was greater than 10000 nM; against EGFR it was 100 to 1000 nM; at SRC, 100 to 1000 nM; against TEC, 100 to 1000 nM.
Consider `C[C@@H]1[C@H](NC(=O)c2ccc(C3(C)COC3)cc2)CCCN1c1cnc(C(N)=O)c(Nc2cnn(C)c2)n1` [Example D-228, 3-[(1-methyl-1H-pyrazol-4-yl)amino]-5-[(2R,3R)-2-methyl-3-[4-(3-methyloxetan-3-yl)benzamido]piperidin-1-yl]pyrazine-2-carboxamide], for which the IC50 at JAK3 is 1000 to 10000 nM; on LCK it was 100 to 1000 nM; on ITK, 100 to 1000 nM; against EGFR it was 1000 to 10000 nM; at SRC, 10 to 100 nM; at TEC, no more than 10 nM.
Consider `Cc1nc2cc(C(=O)N[C@@H]3CCCN(c4cnc(C(N)=O)c(Nc5cnn(C)c5)n4)[C@@H]3C)ccc2o1` [Example D-238, N-[(2R,3R)-1-{5-carbamoyl-6-[(1-methyl-1H-pyrazol-4-yl)amino]pyrazin-2-yl}-2-methylpiperidin-3-yl]-2-methyl-1,3-benzoxazole-5-carboxamide], for which the half-maximal inhibitory concentration (IC50) at JAK3 is 100 to 1000 nM; at LCK, 10 to 100 nM; against ITK, 100 to 1000 nM; against EGFR, 100 to 1000 nM; at SRC it was 10 to 100 nM; against TEC, no more than 10 nM.
In the case of `Cc1ccc(C(=O)N[C@@H]2CCCN(c3cnc(C(N)=O)c(Nc4cnn(C)c4)n3)[C@@H]2C)cc1` [Example D-232, 3-[(1-methyl-1H-pyrazol-4-yl)amino]-5-[(2R,3R)-2-methyl-3-(4-methylbenzamido)piperidin-1-yl]pyrazine-2-carboxamide], the IC50 on JAK3 was 1000 to 10000 nM; at LCK it was 10 to 100 nM; at ITK, 100 to 1000 nM; on EGFR it was 1000 to 10000 nM; on SRC, 10 to 100 nM; against TEC, no more than 10 nM.
Consider `C[C@@H]1[C@H](NC(=O)c2ccc(C(C)(O)C(F)(F)F)cc2)CCCN1c1cnc(C(N)=O)c(Nc2cnn(C)c2)n1` (single isomer, unassigned) [Example D-214], for which the IC50 on JAK3 was 1000 to 10000 nM; at LCK, 10 to 100 nM; on ITK, 100 to 1000 nM; at EGFR it was 100 to 1000 nM; at SRC, 10 to 100 nM; on TEC, no more than 10 nM.
`C[C@@H]1[C@H](NC(=O)c2ccc(C(C)(C)O)cc2)CCCN1c1cnc(C(N)=O)c(Nc2cnn(C)c2)n1` [Example D-194, 5-[(2R,3R)-3-[4-(2-hydroxypropan-2-yl)benzamido]-2-methylpiperidin-1-yl]-3-[(1-methyl-1H-pyrazol-4-yl)amino]pyrazine-2-carboxamide]: the IC50 was 1000 to 10000 nM on JAK3; 100 to 1000 nM on LCK; 100 to 1000 nM at ITK; 1000 to 10000 nM against EGFR; 100 to 1000 nM against SRC; no more than 10 nM against TEC.
As for `C[C@@H]1[C@H](NC(=O)c2ccc(N(C)C)cc2)CCCN1c1cnc(C(N)=O)c(Nc2ccc(N3CCN(C)CC3)cc2)n1` [Example D-196, 5-[(2R,3R)-3-[4-(dimethylamino)benzamido]-2-methylpiperidin-1-yl]-3-{[4-(4-methylpiperazin-1-yl)phenyl]amino}pyrazine-2-carboxamide], the half-inhibitory concentration (IC50) on JAK3 lay in the range of 100 to 1000 nM; at LCK, 10 to 100 nM; against ITK it was 10 to 100 nM; against EGFR, 100 to 1000 nM; on SRC it was 10 to 100 nM; at TEC, 10 to 100 nM.
As to `Cn1cc(Nc2nc(N3C4CCC(NC(=O)c5ccc(C6CC6)cc5)C3CC4)cnc2C(N)=O)cn1` (single isomer, unassigned) [Example D-202, 5-[2-(4-cyclopropylbenzamido)-8-azabicyclo[3.2. I]octan-8-yl]-3-[(1-methyl-1H-pyrazol-4-yl)amino]pyrazine-2-carboxamide], the IC50 on JAK3 was greater than 10000 nM; on LCK, 10 to 100 nM; on ITK it was 1000 to 10000 nM; against EGFR, greater than 10000 nM; against SRC, 100 to 1000 nM; against TEC, 100 to 1000 nM.
Turning to `Cc1nc2cc(C(=O)N[C@@H]3CCCN(c4cnc(C(N)=O)c(Nc5cnn(C)c5)n4)[C@@H]3C)ccc2s1` [Example D-242, N-[(2R,3R)-1-{5-carbamoyl-6-[(1-methyl-1H-pyrazol-4-yl)amino]pyrazin-2-yl}-2-methylpiperidin-3-yl]-2-methyl-1,3-benzothiazole-5-carboxamide], the half-maximal inhibitory concentration (IC50) was 100 to 1000 nM on JAK3; 100 to 1000 nM at LCK; 100 to 1000 nM on ITK; 1000 to 10000 nM against EGFR; 10 to 100 nM on SRC; no more than 10 nM against TEC.
For `CN1CCN(c2ccc(Nc3nc(N4CCC[C@@H](n5ccc6cc(C7CC7)cc(F)c6c5=O)C4)cnc3C(N)=O)cc2)CC1` [Example D-174, 5-[(3R)-3-(6-cyclopropyl-8-fluoro-1-oxo-1,2-dihydroisoquinolin-2-yl)piperidin-1-yl]-3-{[4-(4-methylpiperazin-1-yl)phenyl]amino}pyrazine-2-carboxamide], the half-maximal inhibitory concentration (IC50) at JAK3 lay within 100 to 1000 nM; at LCK it was 100 to 1000 nM; against ITK, 100 to 1000 nM; against EGFR, 100 to 1000 nM; against SRC it was 10 to 100 nM; against TEC it was 10 to 100 nM.

One may read the IC50 as the concentration that gives 50% inhibition.
